The target of the test is T1, recombinant human Estrogen Receptor alpha ligand binding domain, residues 307-554 (ER alpha-LBD (GST)) (Homo sapiens, UniProt P03372).
T1 construct: made in house
T1 sequence (P03372 307-554): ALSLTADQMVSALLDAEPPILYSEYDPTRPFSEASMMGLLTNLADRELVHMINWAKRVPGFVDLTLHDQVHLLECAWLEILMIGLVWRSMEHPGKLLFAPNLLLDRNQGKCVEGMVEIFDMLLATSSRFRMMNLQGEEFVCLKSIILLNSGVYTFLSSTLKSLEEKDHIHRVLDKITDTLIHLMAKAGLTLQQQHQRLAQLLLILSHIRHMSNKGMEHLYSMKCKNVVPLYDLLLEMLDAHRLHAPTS
As to the kind of experiment: ERα binding assay (LanthaScreen TR-FRET competition). The conditions noted are these: TR-FRET competition with Fluormone ES2 tracer, 4 hours at room temperature; single experiment or average of two or more. In general terms: In TR-FRET formats the signal depends on donor and acceptor labels being close together.

pIC50: −log10 of the molar value.

Usually pIC50 stands for −log10 of the IC50, conventionally taken in molar units. As for `Cc1ncsc1-c1ccc(CNC(=O)[C@@H]2C[C@@H](O)CN2C(=O)[C@@H](NC(=O)COCCCCCCOc2cc(F)c([C@@H]3c4[nH]c5ccccc5c4C[C@@H](C)N3CC(C)(C)F)c(F)c2)C(C)(C)C)cc1` [Example 51, (2S,4R)-1-((S)-2-(2-((6-(3,5-difluoro-4-((1R,3R)-2-(2-fluoro-2-methylpropyl)-3-methyl-2,3,4,9-tetrahydro-1H-pyrido[3,4-b]indol-1-yl)phenoxy)hexyl)oxy)acetamido)-3,3-dimethylbutanoyl)-4-hydroxy-N-(4-(4-methylthiazol-5-yl)benzyl)pyrrolidine-2-carboxamide], the pIC50 is 8.70.
With `Cc1ncsc1-c1ccc([C@H](C)NC(=O)[C@@H]2C[C@@H](O)CN2C(=O)[C@@H](NC(=O)COCCCOCCCCCOc2cc(F)c([C@@H]3c4[nH]c5ccccc5c4C[C@@H](C)N3CC(C)(C)F)c(F)c2)C(C)(C)C)cc1` [Example 137, (2S,4R)-1-((S)-2-(2-(3-((5-(3,5-Difluoro-4-((R,3R)-2-(2-fluoro-2-methylpropyl)-3-methyl-2,3,4,9-tetrahydro-1H-pyrido[3,4-b]indol-1-yl)phenoxy)pentyl)oxy)propoxy)acetamido)-3,3-dimethylbutanoyl)-4-hydroxy-N—((S)-1-(4-(4-methylthiazol-5-yl)phenyl)ethyl)pyrrolidine-2-carboxamide] the figure was 9.10; with `Cc1ncsc1-c1ccc(CNC(=O)[C@@H]2C[C@@H](O)CN2C(=O)[C@@H](NC(=O)COCCOCCCCCOc2cc(F)c([C@@H]3c4[nH]c5ccccc5c4C[C@@H](C)N3CC(C)(F)F)c(F)c2)C(C)(C)C)cc1` [Example 166, (2S,4R)-1-((S)-2-(2-(2-((5-(4-((1R,3R)-2-(2,2-Difluoropropyl)-3-methyl-2,3,4,9-tetrahydro-1H-pyrido[3,4-b]indol-1-yl)-3,5-difluorophenoxy)pentyl)oxy)ethoxy)acetamido)-3,3-dimethylbutanoyl)-4-hydroxy-N-(4-(4-methylthiazol-5-yl)benzyl)pyrrolidine-2-carboxamide], 9.10; with `Cc1ncsc1-c1ccc(CNC(=O)[C@@H]2C[C@@H](O)CN2C(=O)[C@@H](NC(=O)COCCCCCOc2cc(F)c([C@@H]3c4[nH]c5ccccc5c4C[C@@H](C)N3CC(C)(C)F)c(F)c2)C(C)(C)C)cc1` [Example 18, (2S,4R)-1-((S)-2-(2-((5-(3,5-Difluoro-4-((1R,3R)-2-(2-fluoro-2-methylpropyl)-3-methyl-2,3,4,9-tetrahydro-1H-pyrido[3,4-b]indol-1-yl)phenoxy)pentyl)oxy)acetamido)-3,3-dimethylbutanoyl)-4-hydroxy-N-(4-(4-methylthiazol-5-yl)benzyl)pyrrolidine-2-carboxamide], 9.22.
With `Cc1ncsc1-c1ccc(CNC(=O)[C@@H]2C[C@@H](O)CN2C(=O)[C@@H](NC(=O)CCCCCCOCCCOc2cc(F)c([C@@H]3c4[nH]c5ccccc5c4C[C@@H](C)N3CC(C)(C)F)c(F)c2)C(C)(C)C)cc1` [Example 110, (2S,4R)-1-((S)-2-(7-(3-(3,5-difluoro-4-((1R,3R)-2-(2-fluoro-2-methylpropyl)-3-methyl-2,3,4,9-tetrahydro-1H-pyrido[3,4-b]indol-1-yl)phenoxy)propoxy)heptanamido)-3,3-dimethylbutanoyl)-4-hydroxy-N-(4-(4-methylthiazol-5-yl)benzyl)pyrrolidine-2-carboxamide] the figure was 9.15; with `Cc1ncsc1-c1ccc(CNC(=O)[C@@H]2C[C@@H](O)CN2C(=O)[C@@H](NC(=O)COCCCCCCOc2ccc([C@@H]3c4[nH]c5ccccc5c4C[C@@H](C)N3CC(F)F)nc2)C(C)(C)C)cc1` [Example 8, (2S,4R)-1-((S)-2-(2-((6-((6-((1S,3R)-2-(2,2-Difluoroethyl)-3-methyl-2,3,4,9-tetrahydro-1H-pyrido[3,4-b]indol-1-yl)pyridin-3-yl)oxy)hexyl)oxy)acetamido)-3,3-dimethylbutanoyl)-4-hydroxy-N-(4-(4-methylthiazol-5-yl)benzyl)pyrrolidine-2-carboxamide], 8.17; with `Cc1ncsc1-c1ccc(CNC(=O)[C@@H]2C[C@@H](O)CN2C(=O)[C@@H](NC(=O)CCCCCCCOCCOc2cc(F)c([C@@H]3c4[nH]c5ccccc5c4C[C@@H](C)N3CC(C)(C)F)c(F)c2)C(C)(C)C)cc1` [Example 111, (2S,4R)-1-((S)-2-(8-(2-(3,5-Difluoro-4-((1R,3R)-2-(2-fluoro-2-methylpropyl)-3-methyl-2,3,4,9-tetrahydro-1H-pyrido[3,4-b]indol-1-yl)phenoxy)ethoxy)octanamido)-3,3-dimethylbutanoyl)-4-hydroxy-N-(4-(4-methylthiazol-5-yl)benzyl)pyrrolidine-2-carboxamide], 9.22.
The result for `Cc1ncsc1-c1ccc([C@H](C)NC(=O)[C@@H]2C[C@@H](O)CN2C(=O)[C@@H](NC(=O)COCCCCCOc2cc(F)c([C@@H]3c4[nH]c5ccccc5c4C[C@@H](C)N3CC(C)(C)F)c(F)c2)C(C)(C)C)cc1` [Example 28, (2S,4R)-1-((S)-2-(2-((5-(3,5-Difluoro-4-((1R,3R)-2-(2-fluoro-2-methylpropyl)-3-methyl-2,3,4,9-tetrahydro-1H-pyrido[3,4-b]indol-1-yl)phenoxy)pentyl)oxy)acetamido)-3,3-dimethylbutanoyl)-4-hydroxy-N—((S)-1-(4-(4-methylthiazol-5-yl)phenyl)ethyl)pyrrolidine-2-carboxamide] reads 9.10.
For the compound `Cc1ncsc1-c1ccc(CNC(=O)[C@@H]2C[C@@H](O)CN2C(=O)[C@@H](NC(=O)CCCOc2ccc(COc3cc(F)c([C@@H]4c5[nH]c6ccccc6c5C[C@@H](C)N4CC(C)(C)F)c(F)c3)nc2)C(C)(C)C)cc1` [Example 161, (2S,4R)-1-((S)-2-(4-((6-((3,5-Difluoro-4-((1R,3R)-2-(2-fluoro-2-methylpropyl)-3-methyl-2,3,4,9-tetrahydro-1H-pyrido[3,4-b]indol-1-yl)phenoxy)methyl)pyridin-3-yl)oxy)butanamido)-3,3-dimethylbutanoyl)-4-hydroxy-N-(4-(4-methylthiazol-5-yl)benzyl)pyrrolidine-2-carboxamide], the pIC50 was 9.15.
With `Cc1ncsc1-c1ccc([C@@H](CN)NC(=O)[C@@H]2C[C@@H](O)CN2C(=O)[C@@H](NC(=O)COCCOCCOCCOc2cc(F)c([C@@H]3c4[nH]c5ccccc5c4C[C@@H](C)N3CC(C)(C)F)c(F)c2)C(C)(C)C)cc1` [Example 106, (2S,4R)—N-[(1S)-2-amino-1-[4-(4-methylthiazol-5-yl)phenyl]ethyl]-1-[(2S)-2-[[2-[2-[2-[2-[3,5-difluoro-4-[(1R,3R)-2-(2-fluoro-2-methyl-propyl)-3-methyl-1,3,4,9-tetrahydropyrido[3,4-b]indol-1-yl]phenoxy]ethoxy]ethoxy]ethoxy]acetyl]amino]-3,3-dimethyl-butanoyl]-4-hydroxy-pyrrolidine-2-carboxamide] the figure was 9.10.
In the case of `Cc1ncsc1-c1ccc(CNC(=O)[C@@H]2C[C@@H](O)CN2C(=O)[C@@H](NC(=O)COCC/C=C/CCOc2cc(F)c([C@@H]3c4[nH]c5ccccc5c4C[C@@H](C)N3CC(C)(C)F)c(F)c2)C(C)(C)C)cc1` [Example 22, (2S,4R)-1-((S)-2-(2-(((E)-6-(3,5-Difluoro-4-((1R,3R)-2-(2-fluoro-2-methylpropyl)-3-methyl-2,3,4,9-tetrahydro-1H-pyrido[3,4-b]indol-1-yl)phenoxy)hex-3-en-1-yl)oxy)acetamido)-3,3-dimethylbutanoyl)-4-hydroxy-N-(4-(4-methylthiazol-5-yl)benzyl)pyrrolidine-2-carboxamide], the pIC50 was 9.15.

(Values after US10519152B2, “Compounds and their use in treating cancer” (AstraZeneca AB, priority 2017, dated 2019).)
